The test system of the first experiment is HBV. The experiment is described as follows: HBV replication inhibition assay (BDNA assay) in HepG2.2.15 cells. It is filed as cell-based. Particulars: 6 days treatment, encapsidated HBV DNA in supernatant by branched DNA QuantiGene assay. The source says: HBV replication inhibition by the compounds of this invention could be determined in cells infected or transfected with HBV, or cells with stably integrated HBV, such as HepG2.2.15 cells (Sells et al. 1987). In this example, HepG2.2.15 cells were maintained in cell culture medium containing 10% fetal bovine serum (FBS), Geneticin, L-glutamine, penicillin and streptomycin. HepG2.2.15 cells could be seeded in 96-well plates at a density of 40,000 cells/well and be treated with serially diluted compounds at a final DMSO concentration of 0.5% either alone or in combination by adding drugs in a checker box format. Cells were incubated with compounds for three days, after which medium was removed and fresh medium containing compounds was added to cells and incubated for another three days. At day 6, supernatant was removed and treated with DNase at 37° C. for 60 minutes, followed by enzyme inactivation at 75° C. for 15 minutes. Encapsidated HBV DNA was released from the virions and covalently linked HBV polymerase by incubating in lysis buffer (Affymetrix QS0010) containing 2.5 μg proteinase K at 50° C. for 40 minutes. HBV DNA was denatured by addition of 0.2 M NaOH and detected using a branched DNA (BDNA) QuantiGene assay kit according to manufacturer recommendation (Affymetrix). HBV DNA levels could also be quantified using qPCR, based on amplification of encapsidated HBV DNA extraction with QuickExtraction Solution (Epicentre Biotechnologies) and amplification of HBV DNA using HBV specific PCR probes that can hybridize to HBV DNA and a fluorescently labeled probe for quantitation. In addition, cell viability of HepG2.2.15 cells incubated with test compounds alone or in combination was determined by using CellTitre-Glo reagent according to the manufacturer protocol (Promega). The mean background signal from wells containing only culture medium was subtracted from all other samples, and percent inhibition at each compound concentration was calculated by normalizing to signals from HepG2.2.15 cells treated with 0.5% DMSO using equation E1. % inhibition=(DMSOave−Xi)/DMSOave×100% E1: where DMSOave is the mean signal calculated from the wells that were treated with DMSO control (0% inhibition control) and Xi is the signal measured from the individual wells. EC50 values, effective concentrations that achieved 50% inhibitory effect, were determined by non-linear fitting using Graphpad Prism software (San Diego, Calif.) and equation E2 Y=Y min+(Y max−Y min)/(1+10(Log EC50−X)×HillSlope) E2: […]
where Y represents percent inhibition values and X represents the logarithm of compound concentrations.
Selected compounds of the invention were assayed in the HBV replication assay (BDNA assay), as described above and a representative group of these active compounds is shown in Table 3. […] In Table 3, “A” represents 0.01<EC50<0.10; “B” represents 0.10≤EC50<0.50; and “C” represents 0.50≤EC50<1.0; (‘+’ indicates >50% activity at 10 μM).
A word on the EC50: it is the concentration at which the effect is half-maximal. For `C[C@H]1Cc2[nH]nc(C3CCCO3)c2CN1C(=O)Nc1ccc(F)c(Br)c1` (single isomer, unassigned) [967 D1], the concentration for a half-maximal effect (EC50) is 0.01 to 0.1 µM. As for `CC(C)(O)c1n[nH]c2c1CN(C(=O)Nc1cccc(Cl)c1)CC2` [Compound 238], the “HBV replication inhibition >50% at 10 μM (qualitative flag)” value is given as “+ (‘+’ indicates >50% activity at 10 μM)”.

As to `O=C(Nc1cccc(Cl)c1)N1CCc2[nH]nc(Br)c2C1` [Compound 260], the “HBV replication inhibition >50% at 10 μM (qualitative flag)” value is given as “+ (‘+’ indicates >50% activity at 10 μM)”. Same read-out and setting: then `O=C(Nc1cccc(Cl)c1)N1CCc2[nH]nc(O)c2C1` [Compound 241, N-(3-chlorophenyl)-3-hydroxy-1,4,6,7-tetrahydropyrazolo[4,3-c] pyridine-5-carboxamide], with “+ (‘+’ indicates >50% activity at 10 μM)”; and `CC(CO)c1n[nH]c2c1CN(C(=O)Nc1cccc(Cl)c1)CC2` (stereo not drawn) [Compound 388, N-(3-chlorophenyl)-3-(2-hydroxy-1-methyl-ethyl)-1,4,6,7-tetrahydropyrazolo[4,3-c]pyridine-5-carboxamide], with “+ (‘+’ indicates >50% activity at 10 μM)”.

The experiment is the same for the next values; noted with them: Hepatitis B virus, HepG2.2.15, 144 h, 6 days treatment, encapsidated HBV DNA in supernatant by branched DNA QuantiGene assay.
On to `Cc1cccc(NC(=O)N2CCc3[nH]nc(C4CCC4)c3C2)c1` [Compound 661], for which the half-maximal effective concentration (EC50) was in the range of 0.1 to 0.5 µM. On the same count and under the same terms, then `O=C(Nc1cccc(Cl)c1)N1CCc2[nH]nc(C3CCC3)c2C1` [Compound 554, N-(3-chlorophenyl)-3-cyclobutyl-1,4,6,7-tetrahydropyrazolo[4,3-c]pyridine-5-carboxamide], with 0.01 to 0.1 µM; and `C[C@H]1Cc2[nH]nc(C3CCCO3)c2CN1C(=O)Nc1ccnc(Br)c1F` (single isomer, unassigned) [968 D1], with 0.5 to 1 µM. Still for that read-out and setting: then `CCC(F)(F)c1n[nH]c2c1CN(C(=O)Nc1cccc(Cl)c1)CC2` [Compound 696, N-(3-chlorophenyl)-3-(1,1-difluoropropyl)-1,4,6,7-tetra hydropyrazolo[4,3-c]pyridine-5-carboxamide], with 0.1 to 0.5 µM; and `O=C(Nc1ccc(F)c(Cl)c1)N1CCc2[nH]nc(C34CCCC3C4)c2C1` (stereo not drawn) [Compound 787], with 0.01 to 0.1 µM. On the same count and under the same terms, then `O=C(Nc1cccc(Cl)c1)N1CCc2[nH]nc(C3=CCCCC3)c2C1` [Compound 337, N-(3-chlorophenyl)-3-(cyclohexen-1-yl)-1,4,6,7-tetrahydro pyrazolo[4,3-c]pyridine-5-carboxamide], with 0.01 to 0.1 µM; and `Cc1cc(NC(=O)N2Cc3c(C4CCCO4)n[nH]c3C[C@@H]2C)ccc1F` (single isomer, unassigned) [971 D1], with 0.01 to 0.1 µM; and `Cc1cccc(NC(=O)N2Cc3c(C4CCCO4)n[nH]c3C[C@@H]2C)c1` (single isomer, unassigned) [970 D1], with 0.1 to 0.5 µM. Consider `C[C@@H]1Cc2[nH]nc(C3CCCC3)c2CN1C(=O)Nc1cccc(Cl)c1` [934 R], for which the half-maximal effective concentration (EC50) was in the range of 0.01 to 0.1 µM. As for `C[C@H]1Cc2[nH]nc(C3CCCC3)c2CN1C(=O)Nc1cccc(Cl)c1` [934 S], the EC50 lay in the range of 0.01 to 0.1 µM. Still for that read-out and setting: then `O=C(Nc1cccc(Cl)c1)N1CCc2[nH]nc(N3CCCC3)c2C1` [Compound 455, N-(3-chlorophenyl)-3-pyrrolidin-1-yl-1,4,6,7-tetrahydropyrazolo[4,3-c] pyridine-5-carboxamide], with 0.1 to 0.5 µM. For the molecule `O=C(Nc1cccc(Cl)c1)N1CCc2[nH]nc(C3CCCC3)c2C1` [Compound 264, N-(3-chlorophenyl)-3-cyclopentyl-1,4,6,7-tetrahydro pyrazolo[4,3-c]pyridine-5-carboxamide], the EC50 lay within 0.01 to 0.1 µM. Still for that read-out and setting: next, `N#Cc1cc(NC(=O)N2CCc3[nH]nc(C4CCC4)c3C2)ccc1F` [Compound 668]: 0.01 to 0.1 µM; `C[C@H]1Cc2[nH]nc(C3CCCO3)c2CN1C(=O)Nc1ccc(F)c(Cl)c1` (stereo partly drawn) [965 D2]: 0.01 to 0.1 µM; `C[C@H]1Cc2[nH]nc(C3CCCC3)c2CN1C(=O)Nc1ccnc(Br)c1F` [929 S]: 0.01 to 0.1 µM.

As to `O=C(Nc1ccnc(Br)c1F)N1CCc2[nH]nc(C3CCC3)c2C1` [Compound 664], the EC50 was 0.1 to 0.5 µM. As to `C[C@H]1Cc2[nH]nc(C3CCCO3)c2CN1C(=O)Nc1cccc(Br)c1` (single isomer, unassigned) [966 D1], the EC50 lay in the range of 0.01 to 0.1 µM. On the same count and under the same terms, next, `CC1Cc2[nH]nc(C3CCC3)c2CN1C(=O)Nc1ccnc(Br)c1F` (stereo not drawn) [760 S]: 0.1 to 0.5 µM; `Cc1cccc(NC(=O)N2CCc3[nH]nc(C45CCCC4C5)c3C2)c1` (stereo not drawn) [Compound 783]: 0.01 to 0.1 µM. For `N#Cc1cc(NC(=O)N2CCc3[nH]nc(C45CCCC4C5)c3C2)ccc1F` (stereo not drawn) [Compound 790], the concentration for a half-maximal effect (EC50) was in the range of 0.01 to 0.1 µM. Same read-out and setting: next, `C[C@H]1Cc2[nH]nc(C3CCCO3)c2CN1C(=O)Nc1ccc(F)c(C#N)c1` (stereo partly drawn) [969 D2]: 0.1 to 0.5 µM; `Cc1cc(NC(=O)N2Cc3c(C4CCCO4)n[nH]c3C[C@@H]2C)ccc1F` (stereo partly drawn) [971 D2]: 0.1 to 0.5 µM; `CC1Cc2[nH]nc(C3CCC3)c2CN1C(=O)Nc1cccc(C#N)c1F` (stereo not drawn) [761 R]: 0.1 to 0.5 µM.

`C[C@@H]1Cc2[nH]nc(C3CCCC3)c2CN1C(=O)Nc1ccc(F)c(Cl)c1` [932 R]: the EC50 lay within 0.01 to 0.1 µM. The same measure, in the same setting: next, `N#Cc1cccc(NC(=O)N2CCc3[nH]nc(C45CCCC4C5)c3C2)c1F` (stereo not drawn) [Compound 786]: 0.01 to 0.1 µM; `Cc1cccc(NC(=O)N2Cc3c(C4CCCC4)n[nH]c3C[C@H]2C)c1` [933 R]: 0.01 to 0.1 µM.

As for `O=C(Nc1cccc(Br)c1)N1CCc2[nH]nc(C34CCCC3C4)c2C1` (stereo not drawn) [Compound 785], the 50% effective concentration (EC50) is 0.01 to 0.1 µM. Same read-out and setting: then `C[C@H]1Cc2[nH]nc(C3CCCO3)c2CN1C(=O)Nc1cccc(Cl)c1` (single isomer, unassigned) [964 D1], with 0.01 to 0.1 µM.

These data come from US10544141B2, “Derivatives and methods of treating hepatitis B infections” (Novira Therapeutics, Inc., priority 2014, dated 2020).
